Reference: paper PMC10549826 (Antiviral research, 2023)
pIC50: −log10 of the molar value.

What was measured:
Assay type in all cases: biochemical, influenza A(H3N2) virus
[1] = biological target: A/Victoria/361/2011 NA with T148I (Q136, I148, R150, T439) (Influenza A virus, UniProt G9LQ08, H150R/T148I)
[2] = biological target: A/Victoria/361/2011 NA with Q136K (K136, T148, R150, T439) (Influenza A virus, UniProt G9LQ08, H150R/Q136K)
[3] = biological target: A/Victoria/361/2011 NA with R150H (Q136, T148, H150, T439) (Influenza A virus, UniProt G9LQ08)
[4] = biological target: A/Victoria/361/2011 NA with T439R (Q136, T148, R150, R439) (Influenza A virus, UniProt G9LQ08, H150R/T439R)

CCC(CC)[C@H](NC(C)=O)[C@@H]1[C@H](O)[C@@H](C(=O)O)C[C@H]1N=C(N)N [Peramivir, peramivir]
pIC50 [1]: 10.05 | IC50 fold-change [1]: 0.09 ± 0.01 (1) fold | pIC50 [2]: 9.25 | IC50 fold-change [2]: 0.56 ± 0.09 (8) fold | pIC50 [3]: 10.10 | IC50 fold-change [3]: 0.08 ± 0.01 (1) fold | pIC50 [4]: 9.62 | IC50 fold-change [4]: 0.24 ± 0.04 (3) fold
